Results on 1 substance are retold here after US20060019329A1, “Method of screening for protein inhibitors and activators” (priority 1988, published 2006).

Assay [1] relates to CHO/HIRC cells overproducing the human insulin receptor. The assay is described as follows: Morphologic and growth control effects of insulin on CHO/HIRC test cells. Type of assay: cell-based, Chinese Hamster. As to conditions: 400 nM insulin. The source says:
(§1) These cell lines were generated using approaches analogous to those previously described for the PKC-overproducing cell lines. However, in these HIR studies we utilized a different expression vector, distinct cell lines, and an alternative method of gene transfer (direct transfection as opposed to virus-mediated transduction as used in the PKC experiments previously described). Briefly, CHO cells were co-transfected with the transfer vector pSVEneo (containing the neomycin resistance gene) and the expression vector pCVSVHIRc as previously described (White et al., 1988). After twenty four hours, the transfected cells were placed into 800 ug/ml G418 to select resistant cells. Approximately two weeks later, G418-resistant clones were isolated and subcloned. Clonal cell lines which express high levels of surface insulin receptors were selected by fluorescence-activated cell sorting. One such line (CHO/HIRC), which stably overproduced approximately 80,000 insulin receptors per CHO cell, was utilized in these experiments. A control CHO cell line (CHO/NEO), harboring only the pSVEneo transfer vector, were generated in analogous fashion. Detailed preliminary characterizations of this cell line have been described (White et al., 1988).
We then tested the ability of the CHO/HIRC and CHO/NEO cells to respond to the following insulin treatment protocol. Control cells, hereinafter termed CHO/NEO (which harbor pSVEneo alone), and the Test cells, termed CHO/HIRC (which stably overproduced about 80,000 insulin receptors per cell), were incubated in the presence and absence of insulin. Control (CHO/NEO) and Test (CHO/HIRC) cell lines were exposed to 400 nM of insulin and the resultant morphologic changes were observed and photographed using a Bausch and Lomb BL-200 phase-contrast microscope with a Nikon FM-200 camera attached.

The subject of assay [2] is CHO/NEO control cells. The assay is described as follows: Morphologic and growth control effects of insulin on CHO/NEO control cells. In kind it is cell-based, Chinese Hamster. As to conditions: 400 nM insulin, 48 hours after treatment.
Text: as §1
We then tested the ability of the CHO/HIRC and CHO/NEO cells to respond to the following insulin treatment protocol. […]

Turning to insulin, the morphologic changes result is given as “further pronounced” in assay [1] (24 hours after exposure) and “profound morphologic changes” in assay [1] (after 18 hours). The results for the “adherence to the culture plate” value in assay [1] (48 hours after treatment) and in assay [2] were “virtually all of the test cells had completely detached from the plate” and “still largely intact”, respectively.
